Consider two substances from paper PMC8707700, “Ru(III) Complexes with Lonidamine-Modified Ligands” (International Journal of Molecular Sciences, 2021).

In data set [1] the target is T1, TrxR1 in rat liver extracts (Rattus norvegicus, UniProt O89049).
T1 construct: measured in the extracts from the liver of male white outbred rats; from tissue; host or cells: liver of male white outbred rats (homogenate supernatant)
T1 sequence (O89049 1-499): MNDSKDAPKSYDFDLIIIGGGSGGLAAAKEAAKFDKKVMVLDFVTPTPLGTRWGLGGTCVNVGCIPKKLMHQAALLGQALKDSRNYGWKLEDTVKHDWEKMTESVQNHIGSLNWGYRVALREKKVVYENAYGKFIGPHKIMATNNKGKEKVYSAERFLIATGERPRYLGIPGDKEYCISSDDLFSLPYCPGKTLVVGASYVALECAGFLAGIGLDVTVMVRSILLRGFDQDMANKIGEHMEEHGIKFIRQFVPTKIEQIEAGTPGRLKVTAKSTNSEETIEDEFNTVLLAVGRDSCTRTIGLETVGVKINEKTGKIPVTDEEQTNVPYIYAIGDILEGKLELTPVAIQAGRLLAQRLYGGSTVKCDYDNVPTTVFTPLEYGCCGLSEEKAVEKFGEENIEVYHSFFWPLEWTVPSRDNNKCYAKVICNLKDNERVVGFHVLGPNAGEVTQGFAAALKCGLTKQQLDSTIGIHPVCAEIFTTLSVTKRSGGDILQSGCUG
Description: Inhibition of TrxR1 in rat liver extracts. It counts as biochemical. The conditions noted are these: for mechanism of inhibition: efficacy independent of DTNB concentration; for Ki: estimated according to the Cheng–Prusoff equation, read-out: Ki (inhibition constant); for IC50: rat liver extracts, read-out: TrxR1 IC50, µM (95% C.I.). The procedure:
The TrxR1 enzyme was measured in the extracts from the liver of male white outbred rats homogenised in 50 mM of PBS containing 1 mM of EDTA and centrifuged for 15 min at 10,000 rpm at 4 °C. The supernatant was adjusted to 7.5 µg/mL of protein as determined with pyrogallol red. Then, 40 μL of the enzyme solution was mixed with 10 μL of the test compounds in a 96-well clear flat bottom plate. After 10 min at 25 °C, 30 μL of PBS containing 0.7 mg/mL of BSA and 0.8 mM of NADPH was added. After 15 min at 25 °C, 20 µL of DTNB solution was added to the desired final concentrations. Kinetic studies were carried out by assaying TrxR1 at various concentrations of DTNB. The optical density of the samples was measured with an Infinite M200 Pro reader (Tecan, Grödig, Austria) at 412 nm every 30 s for 20 min. The activity of TrxR1 was calculated as a reaction slope relative to the control wells using Prism 8.0 (GraphPad, Inc., San Diego, CA, USA).

For a further data set, the system named is SH-SY5Y. Put plainly: Antiproliferative activity, MTT assay. It counts as cell-based, human. The conditions noted are these: 72 h exposure, mean ± SD. How it is done: (§1) The antiproliferative activity of new ligands and complexes was determined against human cell lines, including colon adenocarcinoma SW480, breast adenocarcinoma MCF-7, lung adenocarcinoma A549, neuroblastoma SHSY5Y, and non-tumourigenic HaCaT (Table 4). In general, complexes were more cytotoxic compared to ligands, lonidamine, and, in some cases, cisplatin. […] We chose this compound and the synthetically accessible complex 16 for mechanistic studies.
(§2) The antiproliferative activity was studied by MTT assays as published previously. For flow cytometry studies, cells were plated into 6-well plates (Eppendorf, Germany; 4 × 10^5 cells in 2 mL of DMEM) and incubated for 24 h. Solutions of complexes in DMSO were prepared immediately prior to the day of the experiments. Cells were treated with either 20 µM of cisplatin, 50 µM of 16, or 20 µM of 20. Concentrations corresponded to two-fold IC50 values based on MTT assays. Cells were incubated for 24 h, pooled, washed with cold PBS, and resuspended in DMEM. Aliquots of cells were processed as recommended in the Muse Annexin V&Dead Cell Kit or Muse Caspase-3/7 Kit (Luminex). Measurements were carried out on a Muse Cell Analyser, Luminex corp., TX, USA.
(In general: Tetrazolium assays rely on reduction of a dye to a coloured formazan, in cell work by metabolically active cells.)

For another data set, the system named is MCF-7. Description: Antiproliferative activity, MTT assay. The data set is classed as cell-based, human. The conditions noted are these: MTT, 72 h exposure; mean ± SD; read-out: IC50, µM MCF-7. How it is done:
as §1, §2

The test system of the next data set is A549. Put plainly: Antiproliferative activity, MTT assay. It counts as cell-based, human. Conditions: MTT, 72 h exposure; mean ± SD; read-out: IC50, µM A549. The procedure:
as §1, §2

A further data set concerns SW480. Put plainly: Antiproliferative activity, MTT assay. The data set is classed as cell-based, human. The conditions noted are these: MTT, 72 h exposure; mean ± SD; read-out: IC50, µM SW480. How it is done:
as §1, §2

A short description of data set [2]: Stability of Ru(III) complexes in phosphate buffer by UV-vis spectrophotometry. The data set is classed as physicochemical. Conditions: 20 mM phosphate buffer pH 7.4, 100 mM NaCl, 37 °C. The procedure: The stability of Ru(III) complexes (15–20) was investigated in a solution resembling physiological conditions (20 mM of phosphate buffer, pH 7.4, and 100 mM of NaCl at 37 °C) by UV-vis spectrophotometry (Table 1). The half-transformation time t1/2 was calculated based on changes in the electronic absorption spectrum (Figure S1) and defined as the value of t at the Alin/2 point. ΔA(t) was plotted against λmax; the initial section was approximated as a linear function.
The stability of Ru(III) complexes was studied by electron absorption spectroscopy in 20 mM of phosphate buffer, pH 7.4, and 100 mM of NaCl. The working solution (2 mL, 200 μM complex) was prepared by diluting 10 μL of the original 40 mM solution in DMSO and 1.99 mL of phosphate buffer. UV-vis spectra were recorded every 60 s in the range of 280–600 nm at 37 °C. The half-transformation time was t1/2. For λmax, ΔA(t) was plotted, where ΔA = A0–Ai, an initial section, was approximated as a linear function. At ΔAline./2 point calculated as t = t1/2.

Where two headings read alike, the source gives them in different places.

Usually Ki stands for the dissociation constant of the complex between target and ligand, obtained from inhibition or displacement. In general, IC50 refers to the point on the concentration scale where inhibition reaches its midpoint. “Na[trans-Ru(DMSO)(C21H19Cl2N5O)Cl4] [Compound 16]”: the mechanism of inhibition entry in data set [1] is recorded as “non-competitive”. Also, in data set [1], the Ki is 30.7 µM. Also, the IC50 in data set [1] (DTNB 0.06 mM) was 24 µM; in data set [1] (DTNB 0.1 mM), 33 µM; in data set [1] (DTNB 2.5 mM), 33 µM; with SH-SY5Y, 26.1 ± 5.5 µM; in the data set on MCF-7 it was 23 ± 0.5 µM; in the data set on A549, more than 30 µM. Besides, in the data set on SW480, the IC50 is 25 ± 7.1 µM. In addition, the “t1/2 (half-transformation time)” value in data set [2] (mean ± SD, three experiments) was found to be 330 ± 20 s.

In the case of “Na[trans-Ru(DMSO)(C30H37Cl2N5O)Cl4] [Compound 20]”, in data set [1], the mechanism of inhibition entry is listed as “non-competitive”. In data set [1], the Ki is 15.3 µM. Besides, the IC50 amounted to 17 µM in data set [1] (DTNB 0.06 mM); 15 µM in data set [1] (DTNB 0.1 mM); 15 µM in data set [1] (DTNB 2.5 mM); 6.1 ± 0.3 µM in the data set with SH-SY5Y; 9.2 ± 0.1 µM in the data set on MCF-7; 8.1 ± 1.1 µM in the data set on A549. In the data set on SW480, the IC50 is 9.6 ± 1.3 µM. Further, the “t1/2 (half-transformation time)” value in data set [2] is ~ 35 min; in data set [2] (mean ± SD, three experiments) it was 2150 ± 110 s.
